In PubChem BioAssay (NCI):
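1) Cells in 96-well plates. 2) Compound, 48 h, 5 concentrations. 3) Linear interpolation between surrounding doses. 4) Unreached endpoint = highest concentration. GI50 is the concentration that inhibits growth by half. The concentration for full growth arrest is given as TGI.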

Assays:
Assay in all cases: NCI anticancer screen, dose series, 48 h
ACHN renal = system: ACHN renal
SNB-75 CNS = system: SNB-75 CNS
CCRF-CEM leukemia = system: CCRF-CEM leukemia
SR leukemia = system: SR leukemia
NCI-H460 lung = system: NCI-H460 lung
UACC-62 melanoma = system: UACC-62 melanoma
PC-3 prostate = system: PC-3 prostate
COLO 205 colon = system: COLO 205 colon
U251 CNS = system: U251 CNS
T-47D breast = system: T-47D breast
SW-620 colon = system: SW-620 colon
BT-549 breast = system: BT-549 breast
M14 melanoma = system: M14 melanoma
HL-60(TB) leukemia = system: HL-60(TB) leukemia
CAKI-1 renal = system: CAKI-1 renal
OVCAR-5 ovarian = system: OVCAR-5 ovarian
NCI-H226 lung = system: NCI-H226 lung
HCT-15 colon = system: HCT-15 colon
K-562 leukemia = system: K-562 leukemia
NCI/ADR-RES ovarian = system: NCI/ADR-RES ovarian
SF-268 CNS = system: SF-268 CNS
EKVX NSCLC = system: EKVX NSCLC
RPMI-8226 leukemia = system: RPMI-8226 leukemia
HCT-116 colon = system: HCT-116 colon
UACC-257 melanoma = system: UACC-257 melanoma
HS 578T breast = system: HS 578T breast
SF-295 CNS = system: SF-295 CNS
MDA-MB-435 = system: MDA-MB-435
OVCAR-4 ovarian = system: OVCAR-4 ovarian
KM12 colon = system: KM12 colon
UO-31 renal = system: UO-31 renal
TK-10 renal = system: TK-10 renal
A549 NSCLC = system: A549 NSCLC
HT29 colon = system: HT29 colon
SN12C renal = system: SN12C renal
SK-MEL-5 melanoma = system: SK-MEL-5 melanoma
SK-MEL-28 melanoma = system: SK-MEL-28 melanoma
MOLT-4 leukemia = system: MOLT-4 leukemia
SNB-19 CNS = system: SNB-19 CNS
HOP-92 NSCLC = system: HOP-92 NSCLC
IGROV1 ovarian = system: IGROV1 ovarian
SF-539 CNS = system: SF-539 CNS
NCI-H522 lung = system: NCI-H522 lung
DU-145 prostate = system: DU-145 prostate
HOP-62 NSCLC = system: HOP-62 NSCLC
MDA-MB-231 breast = system: MDA-MB-231 breast
MCF7 breast = system: MCF7 breast
LOX IMVI melanoma = system: LOX IMVI melanoma
786-0 renal = system: 786-0 renal
RXF 393 renal = system: RXF 393 renal
NCI-H23 lung = system: NCI-H23 lung
SK-OV-3 ovarian = system: SK-OV-3 ovarian
MALME-3M melanoma = system: MALME-3M melanoma
SK-MEL-2 melanoma = system: SK-MEL-2 melanoma
OVCAR-8 ovarian = system: OVCAR-8 ovarian
A498 renal = system: A498 renal
HCC-2998 colon = system: HCC-2998 colon
OVCAR-3 ovarian = system: OVCAR-3 ovarian

## O=C1CCC(N2C(=O)c3ccc(NS(=O)(=O)c4ccccc4OC(F)(F)F)cc3C2=O)C(=O)N1 (stereo unspecified)
ACHN renal
  GI50: 8.7 µM
  TGI: > 100 µM
SNB-75 CNS
  GI50: 0.11 µM
  TGI: 2.68 µM
CCRF-CEM leukemia
  GI50: 0.0312 µM
SR leukemia
  GI50: 10.8 µM
  TGI: > 100 µM
NCI-H460 lung
  GI50: > 100 µM
  TGI: > 100 µM
UACC-62 melanoma
  GI50: 16.1 µM
  TGI: > 100 µM
PC-3 prostate
  GI50: 0.455 µM
  TGI: > 27.8 µM
COLO 205 colon
  GI50: 0.857 µM
  TGI: > 27.2 µM
U251 CNS
  GI50: > 100 µM
  TGI: > 100 µM
T-47D breast
  GI50: 0.165 µM
SW-620 colon
  GI50: 0.312 µM
  TGI: > 100 µM
BT-549 breast
  GI50: 0.12 µM
  TGI: 1.61 µM
M14 melanoma
  GI50: 1.59 µM
  TGI: > 100 µM
HL-60(TB) leukemia
  GI50: 0.0279 µM
  TGI: 0.35 µM
CAKI-1 renal
  GI50: 0.456 µM
  TGI: > 100 µM
OVCAR-5 ovarian
  GI50: 12.6 µM
  TGI: > 100 µM
NCI-H226 lung
  GI50: 1.12 µM
  TGI: > 100 µM
HCT-15 colon
  GI50: 0.1 µM
  TGI: > 68 µM
K-562 leukemia
  GI50: 3.01 µM
  TGI: > 100 µM
NCI/ADR-RES ovarian
  GI50: 0.7 µM
  TGI: > 100 µM
SF-268 CNS
  GI50: 0.911 µM
  TGI: > 100 µM
EKVX NSCLC
  GI50: > 100 µM
  TGI: > 100 µM
RPMI-8226 leukemia
  GI50: 7.63 µM
  TGI: > 100 µM
HCT-116 colon
  GI50: > 100 µM
  TGI: > 100 µM
UACC-257 melanoma
  GI50: > 100 µM
  TGI: > 100 µM
HS 578T breast
  GI50: 0.0582 µM
  TGI: 1.43 µM
SF-295 CNS
  GI50: 4.38 µM
  TGI: > 100 µM
MDA-MB-435
  GI50: 6.34 µM
  TGI: > 100 µM
OVCAR-4 ovarian
  GI50: 2.61 µM
  TGI: > 100 µM
KM12 colon
  GI50: 1.97 µM
  TGI: > 100 µM
UO-31 renal
  GI50: 0.306 µM
  TGI: > 29.1 µM
TK-10 renal
  GI50: 2.72 µM
  TGI: > 100 µM
A549 NSCLC
  GI50: 7 µM
  TGI: > 100 µM
HT29 colon
  GI50: 7.7 µM
  TGI: > 100 µM
SN12C renal
  GI50: 1.14 µM
  TGI: > 100 µM
SK-MEL-5 melanoma
  GI50: 2.56 µM
  TGI: > 27 µM
SK-MEL-28 melanoma
  GI50: 7.37 µM
  TGI: > 100 µM
MOLT-4 leukemia
  GI50: 0.0314 µM
  TGI: 0.341 µM
SNB-19 CNS
  GI50: 0.843 µM
  TGI: > 100 µM
HOP-92 NSCLC
  GI50: 0.022 µM
  TGI: 0.161 µM
IGROV1 ovarian
  GI50: 0.465 µM
  TGI: > 100 µM
SF-539 CNS
  GI50: > 50.7 µM
  TGI: > 100 µM
NCI-H522 lung
  TGI: > 100 µM
DU-145 prostate
  GI50: > 100 µM
  TGI: > 100 µM
HOP-62 NSCLC
  GI50: 0.187 µM
  TGI: 2.46 µM
MDA-MB-231 breast
  GI50: 0.082 µM
  TGI: 2.26 µM
MCF7 breast
  GI50: 1.68 µM
  TGI: > 100 µM
LOX IMVI melanoma
  GI50: > 100 µM
  TGI: > 100 µM
786-0 renal
  GI50: 0.668 µM
  TGI: > 100 µM
RXF 393 renal
  GI50: 0.609 µM
  TGI: 7.95 µM
NCI-H23 lung
  GI50: > 100 µM
  TGI: > 100 µM
SK-OV-3 ovarian
  GI50: 2.6 µM
  TGI: > 100 µM
MALME-3M melanoma
  GI50: 0.147 µM
  TGI: 3.49 µM
SK-MEL-2 melanoma
  GI50: 1.67 µM
  TGI: 38.4 µM
OVCAR-8 ovarian
  GI50: 0.159 µM
  TGI: > 100 µM
A498 renal
  GI50: 0.266 µM
  TGI: 1.75 µM
HCC-2998 colon
  GI50: 0.729 µM
  TGI: > 70.8 µM

## CCN(CC)S(=O)(=O)c1ccc(-c2nc(C(Cl)Cl)nc3cc(C)nn23)cc1
ACHN renal
  GI50: 1.87 µM
  TGI: 5.12 µM
SNB-75 CNS
  GI50: 6.91 µM
  TGI: > 100 µM
OVCAR-3 ovarian
  GI50: 1.85 µM
  TGI: 4.33 µM
SR leukemia
  GI50: 2.4 µM
  TGI: > 100 µM
NCI-H460 lung
  GI50: 1.85 µM
  TGI: 4.47 µM
PC-3 prostate
  GI50: 2.16 µM
  TGI: 7.41 µM
COLO 205 colon
  GI50: 1.85 µM
  TGI: 4.17 µM
U251 CNS
  GI50: 2.19 µM
  TGI: > 100 µM
T-47D breast
  GI50: 4.03 µM
  TGI: > 100 µM
HL-60(TB) leukemia
  GI50: 2.6 µM
  TGI: > 100 µM
CAKI-1 renal
  GI50: 1.96 µM
  TGI: 5.57 µM
OVCAR-5 ovarian
  GI50: 3.07 µM
  TGI: > 100 µM
NCI-H226 lung
  GI50: 5.36 µM
  TGI: > 100 µM
K-562 leukemia
  GI50: 2.94 µM
  TGI: > 100 µM
SF-268 CNS
  GI50: 3.32 µM
  TGI: > 100 µM
EKVX NSCLC
  GI50: 2.05 µM
  TGI: 5.35 µM
RPMI-8226 leukemia
  GI50: 2.11 µM
  TGI: 5.72 µM
UACC-257 melanoma
  GI50: 2.59 µM
  TGI: 8.66 µM
HS 578T breast
  GI50: 2.4 µM
  TGI: 7.08 µM
SF-295 CNS
  GI50: 2.13 µM
  TGI: 6.77 µM
KM12 colon
  GI50: 1.89 µM
  TGI: 5.35 µM
UO-31 renal
  GI50: 2.78 µM
  TGI: > 100 µM
TK-10 renal
  GI50: 3.03 µM
  TGI: > 100 µM
A549 NSCLC
  GI50: 1.88 µM
  TGI: 4.6 µM
MOLT-4 leukemia
  GI50: 3.32 µM
  TGI: > 100 µM
SNB-19 CNS
  GI50: 2.9 µM
  TGI: > 100 µM
HOP-92 NSCLC
  GI50: 1.9 µM
  TGI: 5.96 µM
SF-539 CNS
  GI50: 3.07 µM
  TGI: > 100 µM
NCI-H522 lung
  GI50: 4.55 µM
  TGI: > 100 µM
DU-145 prostate
  GI50: 1.7 µM
  TGI: 4.49 µM
HOP-62 NSCLC
  GI50: 2.2 µM
  TGI: 7.4 µM
MDA-MB-231 breast
  GI50: 2.55 µM
  TGI: > 100 µM
MCF7 breast
  GI50: 2.84 µM
  TGI: > 100 µM
LOX IMVI melanoma
  GI50: 6.32 µM
  TGI: > 100 µM
786-0 renal
  GI50: > 100 µM
  TGI: > 100 µM
RXF 393 renal
  GI50: 1.71 µM
  TGI: 5.17 µM
NCI-H23 lung
  GI50: 2.01 µM
  TGI: 4.96 µM
SK-MEL-2 melanoma
  GI50: > 100 µM
  TGI: > 100 µM
A498 renal
  GI50: 2.22 µM
  TGI: 9.24 µM
HCC-2998 colon
  GI50: 1.7 µM
  TGI: 3.47 µM
